{
  "source": "patent US12661357B2",
  "about": "“Use of pyrido[1,2-a]pyrimidone analogue” (GUANGZHOU JOYO PHARMATECH CO., LTD, priority 2021, dated 2026)",
  "key": {"[1]": {"test_system": "TE-1 esophageal cancer cells", "assay": "CTG cell proliferation IC50, TE-1", "type": "cell-based", "settings": "TE-1 cells, 72 hours, read-out: Absolute IC50", "source_text": "(§1) • 2). IC50 value: the concentration of inhibitor when 50% inhibitory effect was achieved; • 3). CAL-27 and RPMI 2650: head and neck cancer cell models; HepG2: hepatocellular cancer cells. CAL-27, RPMI 2650 and HepG2 cells were purchased from ATCC, where ATCC® No. was CRL-2095™, CCL-30™, HB-8065™, respectively. • 4). Both KYSE-150 and TE-1 were esophageal cancer cell models. The KYSE-150 cell line was purchased from DSMZ (German Collection of Microorganisms and Cell Cultures), and the DSMZ No. was ACC375; the TE-1 cell line was purchased from National Collection of Authenticated Cell Cultures, catalog number: TCHu89. • 5). RPMI 1640/F12 medium was a 1:1 mixture of RPMI 1640 medium and F12 medium. • 6). The percentages in 10% FBS in Table 1 and Table 2 were volume percentages. (2) Reagents • 1). FBS (fetal bovine serum) (purchased from ExCell, product number: FND500); • 2). MEM medium (purchased from Hyclone, product number: SH30024.01; • 3). DMEM medium (purchased from Gibco, product number: C11995500BT); • 4). MEM NEAA (purchased from Gibco, product number: 11140-050); • 5). RPMI1640 Culture medium (purchased from Gibco, product number: 11875-119); • 6). F12 Culture medium (purchased from Gibco, product number: 11765-054); (3) Test Article and Positive Control Article\n(§2) 2. CTG Method was Used to Determine the Cell Proliferation IC50 of the Compound\n• Step 1: Cells in exponential growth phase were harvested, and viable cells were counted with a Vi-Cell XR cytometer. The cell suspension was adjusted to an appropriate concentration with medium. 90 μL of cell suspension was added to each well of a 96-well cell culture plate, and the final cell concentration was 1500-6000 cells/well. • Step 2: The initial concentration of administration of compound I is 3 μM, and the initial concentration of administration of the control drug Alpelisib and Cisplatin was 10 μM, serially diluted 3-fold, a total of 9 concentration gradients and a DMSO control, the final concentration of DMSO in each well was 0.1%, placed in a 37° C., 5% CO2 incubator for 72 hours. • Step 3: After 72 hours of drug treatment, 50 μL (½ culture volume) CTG solution that was melted and equilibrated to room temperature was added to each well according to the CTG operation instructions. […] After 10 minutes, the fluorescence signal value was measured with an Envision2104 plate reader. […]\n(§3) Cell survival rate was calculated using the formula: Vsample/Vvehicle control×100%. Where, Vsample was the reading of the drug treatment group, and Vvehicle control was the average value of the solvent control group. GraphPad Prism 5.0 software was used, and a S-type dosage-survival rate curve was drawn using a nonlinear regression model and IC50 value was calculated."}, "[2]": {"test_system": "RPMI2650 head and neck cancer cells", "assay": "CTG cell proliferation IC50, RPMI 2650", "type": "cell-based", "settings": "72 hours, read-out: Absolute IC50", "source_text": "as §1, §2\n• Step 1: Cells in exponential growth phase were harvested, and viable cells were counted with a Vi-Cell XR cytometer. The cell suspension was adjusted to an appropriate concentration with medium. […] After 10 minutes, the fluorescence signal value was measured with an Envision2104 plate reader. […]\nas §3"}},
  "note": "Where two headings read alike, the source gives them in different places.",
  "data": [
    {"compound": "COCCOc1cnc2ccc(-c3cnc(OC)c(NS(=O)(=O)c4sc(C)nc4C)c3)cn2c1=O", "note": "[Compound I]", "values": [
      {"measurement": "IC50", "setting": "[1]; listed as compound I", "value": "< 1000", "unit": "nM"},
      {"measurement": "IC50", "setting": "[1]", "value": 131, "unit": "nM"},
      {"measurement": "IC50", "setting": "[2]; listed as compound I", "value": "< 1000", "unit": "nM"},
      {"measurement": "IC50", "setting": "[2]", "value": 73, "unit": "nM"}
    ]}
  ]
}
